Assays:
EW-13 (Ewing's Sarcoma) [1] = assay: Bliss excess, mean over the matrix (fraction); higher = more synergy
Outline: (§1)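 Bliss excess equals the observed combination effect minus the expected value EA + EB − EA·EB, where EA and EB are the effects of each agent alone. Combination Emax is the second-highest inhibition within the matrix. Inhibition was scaled from CellTiter-Glo 2.0 luminescence, with 0 set by vehicle wells and 1 by blank wells, after 72 hours of two-drug dosing of cells plated in 1536-well plates.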

NB7 (Neuroblastoma) = assay: as above
Outline: as §1

[2] = test system: LC4-1 (B-Lymphoblastic Leukemia); assay: as above
Outline: as §1

[3] = test system: ASH-3 (Thyroid Gland Carcinoma); assay: as above
Outline: as §1

[4] = test system: NCI-N87 (Gastric Carcinoma); assay: as above
Outline: as §1

GI-1 (Glioblastoma) [5] = assay: as above
Outline: as §1

[6] = test system: KLE (Endometrial Carcinoma); assay: combination Emax (second highest fraction inhibited in the dose matrix, 72 h); higher = more inhibition; extreme values may be limits of the assay
Outline: as §1

[7] = test system: PF-382 (T-Lymphoblastic Leukemia); assay: as above
Outline: as §1

[8] = test system: HuP-T3 (Pancreatic Carcinoma); assay: as above
Outline: as §1

[9] = test system: VMRC-LCD (Lung Adenocarcinoma); assay: as above
Outline: as §1

[10] = test system: H-EMC-SS (Chondrosarcoma); assay: as above
Outline: as §1

EW-13 (Ewing's Sarcoma) [11] = assay: as above
Outline: as §1

[12] = test system: KYSE-50 (Esophageal Squamous Cell Carcinoma); assay: as above
Outline: as §1

[13] = test system: OCUM-1 (Gastric Carcinoma); assay: as above
Outline: as §1

[14] = test system: KP-2 (Pancreatic Carcinoma); assay: as above
Outline: as §1

IMR-5 (Neuroblastoma) = assay: as above
Outline: as §1

[15] = test system: EBC-1 (Squamous Cell Lung Carcinoma); assay: as above
Outline: as §1

GI-1 (Glioblastoma) [16] = assay: as above
Outline: as §1

[17] = test system: PFSK-1 (Other Solid Carcinomas); assay: Bliss excess, mean over the matrix (fraction); higher = more synergy
Outline: as §1

[18] = test system: PFSK-1 (Other Solid Carcinomas); assay: combination Emax (second highest fraction inhibited in the dose matrix, 72 h); higher = more inhibition; extreme values may be limits of the assay
Outline: as §1

Row | Compound | Bliss excess (EW-13 (Ewing's Sarcoma) [1]) | Bliss excess (NB7 (Neuroblastoma)) | Bliss excess [2] | Bliss excess [3] | Bliss excess [4] | Bliss excess (GI-1 (Glioblastoma) [5]) | combination Emax [6] | combination Emax [7] | combination Emax [8] | combination Emax [9] | combination Emax [10] | combination Emax (EW-13 (Ewing's Sarcoma) [11]) | combination Emax [12] | combination Emax [13] | combination Emax [14] | combination Emax (IMR-5 (Neuroblastoma)) | combination Emax [15] | combination Emax (GI-1 (Glioblastoma) [16]) | Bliss excess [17] | combination Emax [18]
1 | Cc1cc2ncnn2cc1Nc1ncc2c(n1)n(C1CCOCC1)c(=O)n2C [AZD7648] + CN(C)CCCOc1ccc(-c2ccc3ncc4c(c3c2)n(C2CCOCC2)c(=O)n4C)cn1 [AZD0156] (first compound max 10 µM, 7x7, partner max 1 µM) | -0.0385 | 0.0303 | 0.0127 | 0.0116 | 0.0452 | 0.0472 | 0.36 | 0.478 | 0.141 | 0.253 | 0.545 | 0.325 | 0.164 | 0.211 | 0.0295 | 0.239 | 0.218 | 0.261 |  | 
2 | CN(C)CCCOc1ccc(-c2ccc3ncc4c(c3c2)n(C2CCOCC2)c(=O)n4C)cn1 [AZD0156] + C=CCn1c(=O)c2cnc(Nc3ccc(N4CCN(C)CC4)cc3)nc2n1-c1cccc(C(C)(C)O)n1 [AZD1775] (first compound max 1 µM, partner max 1 µM) | 0.0215 | -0.0198 | -0.0353 | 0.0012 | -0.0181 | -0.0207 | 0.531 | 0.954 | 0.205 | 0.357 | 0.346 | 0.444 | 0.27 | 0.548 | 0.147 | 0.741 | 0.165 | 0.88 |  | 
3 | Cc1c2c(nn1C)CSCc1cc(n(C)n1)CSc1cc(c3ccccc3c1)OCCCc1c(C(=O)O)n(C)c3c-2c(Cl)ccc13 [AZD5991] + C=CCn1c(=O)c2cnc(Nc3ccc(N4CCN(C)CC4)cc3)nc2n1-c1cccc(C(C)(C)O)n1 [AZD1775] (first compound max 1 µM, partner max 1 µM) | -0.0441 | -0.0084 | 0.0301 | -0.0243 | -0.0275 | -0.0109 | 0.538 | 0.961 | 0.457 | 0.506 | 0.399 | 0.388 | 0.618 | 0.38 |  | 1 | 0.299 | 0.958 | -0.0282 | 1
4 | COc1cccc(OCCCN)c1-c1cc(Nc2cnc(C#N)cn2)n[nH]1 [Prexasertib] + O=C(c1cc(Cc2n[nH]c(=O)c3ccccc23)ccc1F)N1CCN(C(=O)C2CC2)CC1 [Olaparib] (first compound max 1 µM, 7x7, partner max 10 µM) | -0.0562 | -0.113 | -0.0432 | 0.027 | -0.127 | -0.0364 | 0.431 | 0.897 | 0.695 | 0.679 | 0.31 | 0.698 | 0.75 | 0.7 | 0.289 | 0.976 | 0.603 | 0.933 |  | 
5 | COc1cccc(OCCCN)c1-c1cc(Nc2cnc(C#N)cn2)n[nH]1 [Prexasertib] + CN(C)CCCOc1ccc(-c2ccc3ncc4c(c3c2)n(C2CCOCC2)c(=O)n4C)cn1 [AZD0156] (first compound max 1 µM, 7x7, partner max 1 µM) | 0.0557 | -0.0194 | -0.0113 | 0.0014 | -0.0381 | 0.0084 | 0.471 | 0.9 | 0.7 | 0.751 | 0.493 | 0.452 | 0.844 | 0.818 | 0.441 | 0.963 | 0.545 | 0.966 |  | 
6 | CC(=O)c1c(C)c2cnc(Nc3ccc(N4CCNCC4)cn3)nc2n(C2CCCC2)c1=O [Palbociclib] + CN(CC[C@H](CSC1=CC=CC=C1)NC2=C(C=C(C=C2)S(=O)(=O)NC(=O)C3=CC=C(C=C3)N4CCC(CC4)[C@H](C5=CC=CC=C5C6=CC=C(C=C6)Cl)O)S(=O)(=O)C(F)(F)F)CCO [AZD4320] (first compound max 10 µM, 7x7, partner max 1 µM) | -0.121 |  |  | -0.0104 |  |  | 0.355 | 1 | 0.274 |  |  | 0.649 | 0.37 |  | 0.743 | 0.949 | 0.875 |  | 0.016 | 0.51
7 | CCN(CCO)CCCOc1ccc2c(Nc3cc(CC(=O)Nc4cccc(F)c4)[nH]n3)ncnc2c1 [AZD2811] + C[C@@H]1COCCN1C2=NC(=NC(=C2)C3(CC3)[S@](=N)(=O)C)C4=C5C=CNC5=NC=C4 [AZD6738] (first compound max 1 µM, 7x7, partner max 10 µM) | -0.0257 | 0.0084 | -0.0882 | -0.0367 | -0.0855 | 0.0144 | 0.387 | 0.916 | 0.589 | 0.708 | 0.412 | 0.638 | 0.507 | 0.708 | 0.12 | 1 | 0.32 | 0.922 |  | 
